Measurements from ChEMBL document CHEMBL4330132, “5-Keto-3-cyano-2,4-diaminothiophenes as selective maternal embryonic leucine zipper kinase inhibitors” (Bioorg Med Chem Lett, 2019).

Key:
[1] = target: Insulin receptor-related protein (Homo sapiens) (UniProt P14616); assay: Binding affinity to wild-type human partial length INSRR (R950 to E1278 residues) expressed in bacterial expression system assessed as residual binding level at 1 uM by Kinomescan method relative to control
[2] = target: Cyclin-dependent kinase-like 1 (Homo sapiens) (UniProt Q00532); assay: Binding affinity to wild-type human full length CDKL1 (M1 to I358 residues) expressed in mammalian expression system assessed as residual binding level at 1 uM by Kinomescan method relative to control
Chain of Cyclin-dependent kinase-like 1 (Homo sapiens) (Q00532 whole entry, the tested form may be a part): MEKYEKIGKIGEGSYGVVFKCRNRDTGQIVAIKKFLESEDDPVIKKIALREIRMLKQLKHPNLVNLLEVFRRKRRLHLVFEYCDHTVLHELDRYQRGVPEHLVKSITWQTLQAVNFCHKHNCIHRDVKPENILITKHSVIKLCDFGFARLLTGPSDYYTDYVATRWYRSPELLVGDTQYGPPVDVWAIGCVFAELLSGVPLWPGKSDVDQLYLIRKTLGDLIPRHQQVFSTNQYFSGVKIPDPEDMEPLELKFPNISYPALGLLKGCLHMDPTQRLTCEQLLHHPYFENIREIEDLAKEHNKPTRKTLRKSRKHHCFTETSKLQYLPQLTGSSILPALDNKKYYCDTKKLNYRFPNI

[3] = target: MAP/microtubule affinity-regulating kinase 3 (Homo sapiens) (UniProt P27448); assay: Binding affinity to wild-type human full length MARK3 (M1 to L729 residues) expressed in bacterial expression system assessed as residual binding level at 1 uM by Kinomescan method relative to control
[4] = tested on: Phosphatidylinositol 4,5-bisphosphate 3-kinase catalytic subunit alpha isoform (Homo sapiens), P42336 [C420R]; assay: Binding affinity to human partial length PIK3CA C420R mutant (R108 to N1068 residues) expressed in mammalian expression system assessed as residual binding level at 1 uM by Kinomescan method relative to control
Chain of Phosphatidylinositol 4,5-bisphosphate 3-kinase catalytic subunit alpha isoform (Homo sapiens), P42336 [C420R] (P42336 whole entry C420R, the tested form may be a part, canonical isoform): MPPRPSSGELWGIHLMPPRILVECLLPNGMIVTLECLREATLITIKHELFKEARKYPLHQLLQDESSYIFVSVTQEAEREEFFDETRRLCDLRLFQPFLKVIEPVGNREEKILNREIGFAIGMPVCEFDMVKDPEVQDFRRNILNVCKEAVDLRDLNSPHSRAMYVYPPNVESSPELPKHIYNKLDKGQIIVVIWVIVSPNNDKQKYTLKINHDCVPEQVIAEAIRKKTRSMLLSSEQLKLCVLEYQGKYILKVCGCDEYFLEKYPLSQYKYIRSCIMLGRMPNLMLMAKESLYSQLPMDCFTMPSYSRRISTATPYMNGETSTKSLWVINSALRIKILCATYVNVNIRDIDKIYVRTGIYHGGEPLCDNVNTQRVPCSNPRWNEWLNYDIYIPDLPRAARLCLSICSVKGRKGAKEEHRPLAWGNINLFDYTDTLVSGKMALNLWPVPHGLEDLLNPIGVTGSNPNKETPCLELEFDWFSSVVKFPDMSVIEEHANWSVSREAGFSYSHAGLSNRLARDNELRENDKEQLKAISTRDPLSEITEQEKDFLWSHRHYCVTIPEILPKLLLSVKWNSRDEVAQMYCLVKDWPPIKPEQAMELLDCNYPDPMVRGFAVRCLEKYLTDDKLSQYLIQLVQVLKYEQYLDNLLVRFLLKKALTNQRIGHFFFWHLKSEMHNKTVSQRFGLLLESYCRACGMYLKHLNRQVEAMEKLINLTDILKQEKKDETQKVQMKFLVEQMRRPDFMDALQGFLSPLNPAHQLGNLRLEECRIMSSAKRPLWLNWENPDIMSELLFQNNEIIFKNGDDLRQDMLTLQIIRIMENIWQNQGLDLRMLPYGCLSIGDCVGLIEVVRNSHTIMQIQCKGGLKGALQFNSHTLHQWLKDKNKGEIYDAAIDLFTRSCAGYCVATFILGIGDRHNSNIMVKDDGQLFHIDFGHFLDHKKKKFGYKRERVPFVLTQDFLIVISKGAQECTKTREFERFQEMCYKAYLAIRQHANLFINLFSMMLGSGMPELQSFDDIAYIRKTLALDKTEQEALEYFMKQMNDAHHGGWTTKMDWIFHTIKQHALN

[5] = target: Non-receptor tyrosine-protein kinase TYK2 (Homo sapiens) (UniProt P29597); assay: Binding affinity to wild-type human partial length TYK2 JH1 catalytic domain (V877 to C1187 residues) expressed in mammalian expression system assessed as residual binding level at 1 uM by Kinomescan method relative to control
[6] = target: Maternal embryonic leucine zipper kinase (Homo sapiens, UniProt Q14680); assay: Binding affinity to wild-type human full length MELK (M1 to V651 residues) expressed in bacterial expression system assessed as residual binding level at 1 uM by Kinomescan method relative to control
[7] = target: Protein kinase C delta type (Homo sapiens) (UniProt Q05655); assay: Binding affinity to wild-type human partial length PRKCD (Q328 to D676 residues) expressed in bacterial expression system assessed as residual binding level at 1 uM by Kinomescan method relative to control
Chain of Protein kinase C delta type (Homo sapiens) (Q05655 whole entry, looked up, the tested form may be a part): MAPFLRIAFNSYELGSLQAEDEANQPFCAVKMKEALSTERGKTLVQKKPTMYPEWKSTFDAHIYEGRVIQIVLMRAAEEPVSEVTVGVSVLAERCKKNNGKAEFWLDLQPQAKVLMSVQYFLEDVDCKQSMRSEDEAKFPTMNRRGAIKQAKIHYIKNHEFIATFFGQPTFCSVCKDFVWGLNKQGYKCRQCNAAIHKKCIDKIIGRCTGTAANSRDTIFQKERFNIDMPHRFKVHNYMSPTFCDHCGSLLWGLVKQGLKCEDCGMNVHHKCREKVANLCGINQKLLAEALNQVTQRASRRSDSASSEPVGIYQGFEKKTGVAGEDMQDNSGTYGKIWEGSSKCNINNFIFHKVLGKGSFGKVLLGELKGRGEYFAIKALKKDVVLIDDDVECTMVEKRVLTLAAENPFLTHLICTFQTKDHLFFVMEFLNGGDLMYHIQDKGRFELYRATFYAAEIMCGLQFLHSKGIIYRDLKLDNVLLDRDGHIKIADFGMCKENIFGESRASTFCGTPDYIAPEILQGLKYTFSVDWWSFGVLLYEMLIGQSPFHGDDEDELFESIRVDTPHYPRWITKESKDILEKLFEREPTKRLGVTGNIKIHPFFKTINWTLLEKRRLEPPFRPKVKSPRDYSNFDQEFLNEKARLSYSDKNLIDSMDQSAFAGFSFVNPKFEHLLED

[8] = target: Tyrosine-protein kinase ZAP-70 (Homo sapiens) (UniProt P43403); assay: Binding affinity to wild-type human partial length ZAP70 (D20 to G299 residues) expressed in mammalian expression system assessed as residual binding level at 1 uM by Kinomescan method relative to control
Chain of Tyrosine-protein kinase ZAP-70 (Homo sapiens) (P43403 whole entry, the tested form may be a part): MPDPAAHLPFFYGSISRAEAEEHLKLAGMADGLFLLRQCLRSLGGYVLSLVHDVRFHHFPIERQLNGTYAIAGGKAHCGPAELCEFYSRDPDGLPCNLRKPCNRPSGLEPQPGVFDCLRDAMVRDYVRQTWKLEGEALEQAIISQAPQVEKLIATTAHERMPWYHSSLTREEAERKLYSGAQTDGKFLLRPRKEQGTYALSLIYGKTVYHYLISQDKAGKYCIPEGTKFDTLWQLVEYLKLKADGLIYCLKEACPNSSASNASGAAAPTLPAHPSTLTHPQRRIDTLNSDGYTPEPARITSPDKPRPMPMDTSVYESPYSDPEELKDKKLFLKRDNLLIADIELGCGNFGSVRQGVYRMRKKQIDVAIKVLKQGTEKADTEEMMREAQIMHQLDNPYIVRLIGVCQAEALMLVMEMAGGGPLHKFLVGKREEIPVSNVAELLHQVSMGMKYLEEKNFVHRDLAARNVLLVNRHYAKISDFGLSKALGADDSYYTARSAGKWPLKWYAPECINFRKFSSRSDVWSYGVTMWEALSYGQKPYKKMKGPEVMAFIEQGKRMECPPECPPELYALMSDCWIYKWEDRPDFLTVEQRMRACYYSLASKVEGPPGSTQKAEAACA

[9] = target: Peripheral plasma membrane protein CASK (Homo sapiens) (UniProt O14936); assay: Binding affinity to wild-type human partial length CASK (M1 to H315 residues) expressed in mammalian expression system assessed as residual binding level at 1 uM by Kinomescan method relative to control
[10] = target: Ribosomal protein S6 kinase alpha-4 (Homo sapiens) (UniProt O75676); assay: Binding affinity to wild-type human partial length C-terminal RPS6KA4 kinase domain 2 (M375 to T705 residues) expressed in mammalian expression system assessed as residual binding level at 1 uM by Kinomescan method relative to control
[11] = target: Dual specificity protein kinase TTK (Homo sapiens) (UniProt P33981); assay: Binding affinity to wild-type human partial length TTK (N505 to V798 residues) expressed in bacterial expression system assessed as residual binding level at 1 uM by Kinomescan method relative to control
Chain of Dual specificity protein kinase TTK (Homo sapiens) (P33981 whole entry, the tested form may be a part): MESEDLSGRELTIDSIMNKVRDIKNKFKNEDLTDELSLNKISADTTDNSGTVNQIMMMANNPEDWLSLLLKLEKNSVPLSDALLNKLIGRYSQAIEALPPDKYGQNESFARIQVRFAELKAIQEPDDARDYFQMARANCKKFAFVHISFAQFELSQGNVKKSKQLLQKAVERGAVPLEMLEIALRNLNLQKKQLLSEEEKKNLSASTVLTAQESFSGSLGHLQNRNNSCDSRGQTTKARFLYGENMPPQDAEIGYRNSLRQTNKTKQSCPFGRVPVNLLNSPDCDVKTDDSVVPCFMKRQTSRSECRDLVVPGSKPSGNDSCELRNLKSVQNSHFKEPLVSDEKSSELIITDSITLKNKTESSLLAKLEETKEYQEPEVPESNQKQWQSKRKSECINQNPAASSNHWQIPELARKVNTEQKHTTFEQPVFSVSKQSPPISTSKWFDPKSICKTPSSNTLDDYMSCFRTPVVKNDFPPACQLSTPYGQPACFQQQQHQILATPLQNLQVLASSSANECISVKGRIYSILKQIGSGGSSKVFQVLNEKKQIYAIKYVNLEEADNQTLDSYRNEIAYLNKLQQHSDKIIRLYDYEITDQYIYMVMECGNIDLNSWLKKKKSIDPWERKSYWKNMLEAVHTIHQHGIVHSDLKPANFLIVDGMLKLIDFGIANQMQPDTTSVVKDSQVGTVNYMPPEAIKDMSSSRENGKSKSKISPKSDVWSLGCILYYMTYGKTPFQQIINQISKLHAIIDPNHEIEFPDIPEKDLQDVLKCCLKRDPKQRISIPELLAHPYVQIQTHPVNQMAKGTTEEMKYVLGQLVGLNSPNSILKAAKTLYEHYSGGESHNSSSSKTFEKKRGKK

[12] = target: Tyrosine-protein kinase JAK2 (Homo sapiens) (UniProt O60674); assay: Binding affinity to wild-type human partial length JAK2 JH1 catalytic domain (A829 to G1132 residues) expressed in mammalian expression system assessed as residual binding level at 1 uM by Kinomescan method relative to control
[13] = target: Serine/threonine-protein kinase LATS2 (Homo sapiens) (UniProt Q9NRM7); assay: Binding affinity to wild-type human partial length LATS2 (Q641 to V1088 residues) expressed in mammalian expression system assessed as residual binding level at 1 uM by Kinomescan method relative to control
[14] = target: Calcium/calmodulin-dependent protein kinase type 1D (Homo sapiens) (UniProt Q8IU85); assay: Binding affinity to wild-type human partial length CAMK1D (M1 to K299 residues) expressed in bacterial expression system assessed as residual binding level at 1 uM by Kinomescan method relative to control
[15] = target: Mitogen-activated protein kinase kinase kinase 5 (Homo sapiens) (UniProt Q99683); assay: Binding affinity to wild-type human partial length ASK1 (E648 to S964 residues) expressed in bacterial expression system assessed as residual binding level at 1 uM by Kinomescan method relative to control
[16] = target: Ephrin type-B receptor 1 (Homo sapiens) (UniProt P54762); assay: Binding affinity to wild-type human partial length EPHB1 (P589 to T911 residues) expressed in bacterial expression system assessed as residual binding level at 1 uM by Kinomescan method relative to control
[17] = target: Dual specificity mitogen-activated protein kinase kinase 3 (Homo sapiens) (UniProt P46734); assay: Binding affinity to wild-type human full length MEK3 (M1 to S318 residues) expressed in mammalian expression system assessed as residual binding level at 1 uM by Kinomescan method relative to control
Chain of Dual specificity mitogen-activated protein kinase kinase 3 (Homo sapiens) (P46734 whole entry, the tested form may be a part): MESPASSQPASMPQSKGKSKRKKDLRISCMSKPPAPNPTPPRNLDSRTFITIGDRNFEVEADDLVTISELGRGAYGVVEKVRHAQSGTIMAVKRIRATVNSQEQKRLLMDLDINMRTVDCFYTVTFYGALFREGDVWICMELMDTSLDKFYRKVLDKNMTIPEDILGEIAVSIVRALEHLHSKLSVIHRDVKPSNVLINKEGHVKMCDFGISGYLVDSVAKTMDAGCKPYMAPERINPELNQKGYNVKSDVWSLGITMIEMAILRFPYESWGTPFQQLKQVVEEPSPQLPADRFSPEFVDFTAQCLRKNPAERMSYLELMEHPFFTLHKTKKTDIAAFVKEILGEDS

[18] = target: Serine/threonine-protein kinase MRCK beta (Homo sapiens) (UniProt Q9Y5S2); assay: Binding affinity to wild-type human partial length MRCKB (L56 to S417 residues) expressed in bacterial expression system assessed as residual binding level at 1 uM by Kinomescan method relative to control
[19] = tested on: Tyrosine-protein kinase ABL1 (Homo sapiens), P00519 [T315I]; assay: Binding affinity to human non-phosphorylated ABL1 T315I mutant (S229 to K512 residues) expressed in mammalian expression system assessed as residual binding level at 1 uM by Kinomescan method relative to control
[20] = target: Phosphorylase b kinase gamma catalytic chain, liver/testis isoform (Homo sapiens) (UniProt P15735); assay: Binding affinity to wild-type human partial length PHKG2 (M1 to W300 residues) expressed in bacterial expression system assessed as residual binding level at 1 uM by Kinomescan method relative to control
Chain of Phosphorylase b kinase gamma catalytic chain, liver/testis isoform (Homo sapiens) (P15735 whole entry, the tested form may be a part, canonical isoform): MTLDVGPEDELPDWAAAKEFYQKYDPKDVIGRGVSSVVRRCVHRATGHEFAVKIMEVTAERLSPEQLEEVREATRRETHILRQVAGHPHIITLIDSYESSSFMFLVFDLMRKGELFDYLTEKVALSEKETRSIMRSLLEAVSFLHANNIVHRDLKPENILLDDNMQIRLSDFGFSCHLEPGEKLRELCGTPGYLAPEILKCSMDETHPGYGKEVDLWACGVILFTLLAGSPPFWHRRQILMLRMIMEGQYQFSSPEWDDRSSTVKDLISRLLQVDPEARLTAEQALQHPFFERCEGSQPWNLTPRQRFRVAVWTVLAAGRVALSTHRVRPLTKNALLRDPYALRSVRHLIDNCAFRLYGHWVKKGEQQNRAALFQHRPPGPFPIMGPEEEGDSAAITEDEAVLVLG

[21] = target: Tyrosine-protein kinase Yes (Homo sapiens) (UniProt P07947); assay: Binding affinity to wild-type human partial length YES (T257 to L543 residues) expressed in bacterial expression system assessed as residual binding level at 1 uM by Kinomescan method relative to control
Chain of Tyrosine-protein kinase Yes (Homo sapiens) (P07947 2-543 limits assumed): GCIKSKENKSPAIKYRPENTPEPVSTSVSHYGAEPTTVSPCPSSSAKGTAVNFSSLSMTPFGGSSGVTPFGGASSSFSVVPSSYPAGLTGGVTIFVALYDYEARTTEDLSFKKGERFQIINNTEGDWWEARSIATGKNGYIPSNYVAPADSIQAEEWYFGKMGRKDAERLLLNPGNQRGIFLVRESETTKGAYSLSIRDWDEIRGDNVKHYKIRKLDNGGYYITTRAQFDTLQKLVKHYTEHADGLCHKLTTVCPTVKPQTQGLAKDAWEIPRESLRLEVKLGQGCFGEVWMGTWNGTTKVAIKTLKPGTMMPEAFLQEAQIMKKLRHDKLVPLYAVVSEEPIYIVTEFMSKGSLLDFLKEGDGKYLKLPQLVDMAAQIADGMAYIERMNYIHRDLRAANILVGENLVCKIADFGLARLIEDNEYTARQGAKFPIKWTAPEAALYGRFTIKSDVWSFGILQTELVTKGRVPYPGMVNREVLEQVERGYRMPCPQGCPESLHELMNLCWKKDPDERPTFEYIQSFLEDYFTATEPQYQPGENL

[22] = target: Ephrin type-B receptor 3 (Homo sapiens) (UniProt P54753); assay: Binding affinity to wild-type human partial length EPHB3 (Q599 to T928 residues) expressed in bacterial expression system assessed as residual binding level at 1 uM by Kinomescan method relative to control
[23] = target: Mitogen-activated protein kinase kinase kinase 7 (Homo sapiens) (UniProt O43318); assay: Binding affinity to wild-type human partial length TAK1 (M1 to Q303 residues) expressed in mammalian expression system assessed as residual binding level at 1 uM by Kinomescan method relative to control
[24] = target: Ephrin type-A receptor 6 (Homo sapiens) (UniProt Q9UF33); assay: Binding affinity to wild-type human partial length EPHA6 (Y700 to E1046 residues) expressed in bacterial expression system assessed as residual binding level at 1 uM by Kinomescan method relative to control

Compound: CC(C)Nc1sc(C(=O)c2ccc(Cl)s2)c(N)c1C#N
- Activity [1]: 76%
- Activity [2]: 100%
- Activity [3]: 78%
- Activity [4]: 100%
- Activity [5]: 100%
- Activity [6]: 14%
- Activity [7]: 72%
- Activity [8]: 100%
- Activity [9]: 100%
- Activity [10]: 79%
- Activity [11]: 49%
- Activity [12]: 100%
- Activity [13]: 100%
- Activity [14]: 94%
- Activity [15]: 100%
- Activity [16]: 96%
- Activity [17]: 100%
- Activity [18]: 90%
- Activity [19]: 100%
- Activity [20]: 72%
- Activity [21]: 56%
- Activity [22]: 94%
- Activity [23]: 100%
- Activity [24]: 86%
